In EP0164320A1, “Pharmaceutical preparations for spinal analgesia containing guanfacine, and method for their preparation” (priority 1984, dated 1985):

Key:
Format in all cases: in vivo
mice [1] = assay: hot-plate test after intrathecal injection in mice; set-up: unit not given here; conditions: 15 minutes after intrathecal injection of 5 µl, mean ± S.E.M.
Protocol: (§1) Antinociceptive effects in mice were established in the following test. The effect 15 minutes after intrathecal injection of a volume of 5 µl containing different doses of guanfacine was established. The vehicle used was a physiological solution of sodium chloride.

mice [2] = assay: tail-flick test after intrathecal injection in mice; set-up: unit not given here; conditions: 15 minutes after intrathecal injection of 5 µl, mean ± S.E.M.
Protocol: as §1

male Sprague-Dawley rats [3] = assay: hot plate test after intrathecal injection in rats; set-up: unit not given here; conditions: rat, mean ± S.E.M.
Protocol: (§2) The antinociceptive effect of guanfacine may be established by the hot plate and tail-flick test.
(§3) Testing of tail-flick was performed using an IITC Inc. Mod. 33 Analgesia- meter@, with the light focused on the tip of the tail (d'Amour, F.E. and Smith, D.L. J. Pharmacol. Exp. Ther. 72, 74, 1941). The intensity of the beam was adjusted to give a reaction time of 3-4 sec. before intrathecal injection of the drug solutions. For the hot plate testing, a modification of the Eddy and Leimbach method (Eddy, N.B. and Leimbach, D. J. Pharmacol. Exp. Ther. 107, 385, 1952) was used. An IITC Inc. Mod. 35-D Analgesiameter® was set at a temperature of 58^±0.2°C. The criteria for a pain response was licking of either of the hindpaws.
(§4) We examined the pain responsiveness of male Sprague-Dawley rats in a weight range of 300-350 g. […] The catheter was fixed at a surgical operation. The animals were kept in the animal colony in separate cages until testing took place 1 week after operation. The drug was administered in a volume of 15 µl, and testing of hot plate and tail-flick reaction latencies took place at the intervals given in the tables. Animals given the combination of guanfacine and bupivacaine were not tested until the local anaesthetic effect of bupivacaine had disappeared, which normally took between 10 and 15 minutes.
(§5) Guanfacine or a physiologically acceptable salt thereof was administered alone or in combination with the local anaesthetic agent bupivacaine or a physiologically acceptable salt thereof. When guanfacine'was administered together with bupivacaine first an initial phase of regional anaesthesia restricted to the hind-legs and the lower derma- tomes was obtained. When this effect had disappeared the animals were still non-responsive in the hot plate and tail-flick test for up to at least 7 hours after the injection, cf Table 2 below.

mice [4] = assay: behavioural response (paw licking) after subcutaneous formaline in mice; conditions: 1% formaline s.c. 20 µl, 5 µl, 0.01% (0.5 µg) of guanfacine i.th. 15 minutes before, ± S.E.M., 10 animals
Protocol: Behavioural response in mice after subcutaneous injection of 20 µl of a physiological solution of sodium chloride or a 1 % solution of formaline on the dorsum of either hind paw.
5 µl, 0.01% ([…]) of guanfacine or the same volume of a physiological solution of sodium chloride were injected intrathetecally 15 minutes before the subcutaneous injection of formaline. The accumulated reaction, i.e. the total time of licking on the injected paw, was measured during the 5 minutes after the injection of formaline.
The results are expressed as mean accumulated response during 5 minutes in seconds ± S.E.M. Each group consisted of 10 animals.

male Sprague-Dawley rats [5] = assay: tail-flick test after intrathecal injection in rats; set-up: unit not given here; conditions: rat, mean ± S.E.M.
Protocol: as §2, §3, §4, §5

[6] = 0.001 % guanfacine, dose 0.05 µg
[7] = 0.002 % guanfacine, dose 0.1 µg
[8] = 0.004 % guanfacine, dose 0.2 µg
[9] = 0.006 % guanfacine, dose 0.3 µg
[10] = intrathecal 75 µg guanfacine (15 µl 0.5 %), 1 min, 100x(test-latency - pre-drug latency)/pre-drug latency, n=4
[11] = intrathecal 75 µg guanfacine, 5 min
[12] = intrathecal 75 µg guanfacine, 10 min
[13] = intrathecal 75 µg guanfacine, 20 min
[14] = intrathecal 75 µg guanfacine, 30 min
[15] = intrathecal 75 µg guanfacine, 45 min
[16] = intrathecal 75 µg guanfacine, 8 hours
[17] = intrathecal 75 µg guanfacine, 22 hours

## N=C(N)NC(=O)Cc1c(Cl)cccc1Cl [guanfacine, 2,6-dichlorophenyl-acetyl-guanidine]
Mice [1]; [6]
  Antinociception hot-plate (cut-off=30 sec): 128±29
Mice [1]; [7]
  Antinociception hot-plate (cut-off=30 sec): 152±33
Mice [1]; [8]
  Antinociception hot-plate (cut-off=30 sec): 152±47
Mice [1]; [9]
  Antinociception hot-plate (cut-off=30 sec): 168±40
Mice [2]; [6]
  Antinociception tail-flick (cut-off=10 sec): 29±23
Mice [2]; [7]
  Antinociception tail-flick (cut-off=10 sec): 26±13
Mice [2]; [8]
  Antinociception tail-flick (cut-off=10 sec): 59±17
Mice [2]; [9]
  Antinociception tail-flick (cut-off=10 sec): 86±18
Male Sprague-Dawley rats [3]; [10]
  Antinociception hot plate (cut-off=30 sec.): -15±12
Male Sprague-Dawley rats [3]; [11]
  Antinociception hot plate (cut-off=30 sec.): -15±6
Male Sprague-Dawley rats [3]; [12]
  Antinociception hot plate (cut-off=30 sec.): 29±18
Male Sprague-Dawley rats [3]; [13]
  Antinociception hot plate (cut-off=30 sec.): 62±29
Male Sprague-Dawley rats [3]; [14]
  Antinociception hot plate (cut-off=30 sec.): 116±36
Male Sprague-Dawley rats [3]; [15]
  Antinociception hot plate (cut-off=30 sec.): 239±23
Male Sprague-Dawley rats [3]; [16]
  Antinociception hot plate (cut-off=30 sec.): 124±56
Male Sprague-Dawley rats [3]; [17]
  Antinociception hot plate (cut-off=30 sec.): 41±12
Male Sprague-Dawley rats [3]; intrathecal 75 µg guanfacine, 27 hours
  Antinociception hot plate (cut-off=30 sec.): 25±16
Mice [4]
  mean accumulated response (total time of licking on the injected paw) during 5 minutes: 9 ± 2 s
Male Sprague-Dawley rats [5]; [10]
  Antinociception tail-flick (cut-off=10 sec.): 27.5±17
Male Sprague-Dawley rats [5]; [11]
  Antinociception tail-flick (cut-off=10 sec.): 92.75±26
Male Sprague-Dawley rats [5]; [12]
  Antinociception tail-flick (cut-off=10 sec.): 110±33
Male Sprague-Dawley rats [5]; [13]
  Antinociception tail-flick (cut-off=10 sec.): 147±13
Male Sprague-Dawley rats [5]; [14]
  Antinociception tail-flick (cut-off=10 sec.): 153±10
Male Sprague-Dawley rats [5]; [15]
  Antinociception tail-flick (cut-off=10 sec.): 156±8
Male Sprague-Dawley rats [5]; [16]
  Antinociception tail-flick (cut-off=10 sec.): 138±20
Male Sprague-Dawley rats [5]; [17]
  Antinociception tail-flick (cut-off=10 sec.): 62±8
